Values of other authors in US20090253744A1, “Acylated piperidine derivatives as melanocortin-4 receptor modulators” (priority 2006, published 2009).

How the values were obtained:
[1] = tested on: males with psychogenic erectile dysfunction; settings: injected intramuscularly or subcutaneously
erectile dysfunction = settings: in vivo

Row | Compound | response rate [1] | effective in % of patients (erectile dysfunction)
1 | Ac-Nle-c[Asp-His-DPhe-Arg-Trp-Lys]-NH2 [MT-II] | 75% | –
2 | CCCc1nn(C)c2c(=O)[nH]c(-c3cc(S(=O)(=O)N4CCN(C)CC4)ccc3OCC)nc12 [Sildenafil] | – | about 70%
